≈ marks a conversion by molar mass, not a printed value.
Columns and labels:
Type in all cases: cell-based
[1] = system: Pseudomonas aeruginosa culture; test: Broth microdilution (BMD)
[2] = system: Pseudomonas aeruginosa culture; test: Optical third-derivative MIC method, culture in broth; conditions: for MIC: Pseudomonas aeruginosa
From the text: (§1) The method of FIG. 1 starts at a time equal to zero, t0 (1). Preferably, said t0 is the moment a pure bacteria culture is finished being prepared. Alternatively, said t0 is the moment all wells contain both said bacteria culture and said antimicrobial drug. After the starting of the experiment each well is periodically illuminated with a light source and the intensity of the transmitted light is detected with a photodetector (2). Preferably, each well is illuminated and the intensity of the transmitted light is detected every hour (2). More preferably, each well is illuminated and the intensity of the transmitted light is detected every 5 to 15 min. After a predetermined time length, preferably after 4 hours, a first, a second and a third derivative of said measured intensity is calculated (3) in a first and a second time frame for each well. Preferably, said second time frame is the last measured time frame after the test has been running for said predetermined time length, and said first time frame is the time frame preceding the second time frame. More preferably, said first time frame is between two and three hours and said second time frame is between three and four hours. After the calculation of said derivatives, said first derivative in said second time frame of said reference well is compared to a growth speed threshold value (4). Preferably, said growth speed threshold value is 0.166 (4). If said first derivative in said second time frame of said reference well is larger than or equal to said growth speed threshold value said bacteria culture is classified as Type I (4). If said first derivative in said second time frame of said reference well is smaller than said growth speed threshold value said bacteria culture is classified as Type II (4). Subsequently, independent of the classification of the bacteria culture according to the two types, the method comprises the following steps which are performed for each well or for all wells except said reference well. Both said first and said second time frames are evaluated to see if there is an inflection point present in the second derivative in said first and/or said second time frame (5).
(§2) If said first and/or said second time frame comprise said inflection point than said third derivative in said first time frame is compared to said third derivative in said second time frame (6). If said third derivative in said first time frame is larger than said third derivative in said second time frame, then said first time frame and said second time frame are selected as a first and second time frame to be used in a minimal inhibitory concentration determination method (10). If said third derivative in said first time frame is not larger than said third derivative in said second time frame, then said well is illuminated again after a certain time period, preferably an hour, more preferably 5 to 15 min after said predetermined time length said, with a light source and the intensity of the transmitted light is detected with a photodetector forming a new time frame subsequent to said second time frame (7). A third derivative, and possibly also a first and/or a second derivative, is calculated in said new time frame (7). Further, in step (7) a new first time frame is put equal to said second time frame and a new second time frame to equal to said new time frame. Subsequently, said third derivative in said new first time frame is compared to said third derivative in said new second time frame (8). If said derivative in said new first time frame is larger than said third derivative in said new second time frame, then said new first time frame and said new second time frame are selected as a first and second time frame to be used in a minimal inhibitory concentration determination method (10). […]

[3] = system: Pseudomonas aeruginosa culture; test: E-test; conditions: culture PA/2472
Streptococcus Pneumoniae [4] = test: E-test, broth + horse blood trial
Protocol: Tables 14 and 15 show the results of experiment whereby a bacteria culture is grown in blood instead of broth. The experiments of Table 14 were conducted by illuminating the light-transmissive wells with a light having a wavelength of 635 nm. The experiments of Table 15 were conducted by illuminating the light-transmissive wells with a light having a wavelength of 650 nm. […] The determination of the best wavelength may or may not be based on the commercial availability of the spectral line. The choice of the optimal wavelength may or may not be determined by calculating the absorbance for various wavelengths. The choice of the optimal wavelength can also be based on the combination of the comparison with the other two methods, the commercial availability and on the calculation of the absorbance for various wavelengths.

Streptococcus Pneumoniae [5] = test: Optical third-derivative MIC method (MICSTRIP), broth + horse blood; conditions: for MICSTRIP (MIC): broth + horse blood
From the text: as §1, §2

Streptococcus Pneumoniae [6] = test: BMD, broth + horse blood trial

| Structure (SMILES) | HR E-test (Streptococcus Pneumoniae [4]; strain 2532) | E-test (MIC) (Streptococcus Pneumoniae [4]; strain 2543) [µg/mL] | HR E-test (Streptococcus Pneumoniae [4]; strain 2543) | E-test (MIC) (Streptococcus Pneumoniae [4]; strain 2544) [µg/mL] | HR E-test (Streptococcus Pneumoniae [4]; strain 2544) | E-test (MIC) (Streptococcus Pneumoniae [4]; strain ATCC 49619) [µg/mL] | HR E-test (Streptococcus Pneumoniae [4]; strain ATCC 49619) | MICSTRIP (MIC) (Streptococcus Pneumoniae [5]; strain 2532, 635 nm) [µg/mL] | MICSTRIP (MIC) (Streptococcus Pneumoniae [5]; strain 2532, 650 nm) [µg/mL] | MICSTRIP (MIC) (Streptococcus Pneumoniae [5]; strain 2543, 635 nm) [µg/mL] | MICSTRIP (MIC) (Streptococcus Pneumoniae [5]; strain 2543, 650 nm) [µg/mL] | MICSTRIP (MIC) (Streptococcus Pneumoniae [5]; strain 2544, 635 nm) [µg/mL] | MICSTRIP (MIC) (Streptococcus Pneumoniae [5]; strain 2544, 650 nm) [µg/mL] | MICSTRIP (MIC) (Streptococcus Pneumoniae [5]; strain ATCC 49619, 635 nm) [µg/mL] | HR MICSTRIP (Streptococcus Pneumoniae [5]; strain ATCC 49619, 650 nm) | MICSTRIP (MIC) (Streptococcus Pneumoniae [5]; strain ATCC 49619, 650 nm) [µg/mL] | BMD (MIC) (Streptococcus Pneumoniae [6]; strain 2532) [µg/mL] | BMD (MIC) (Streptococcus Pneumoniae [6]; strain 2543) [µg/mL] | BMD (MIC) (Streptococcus Pneumoniae [6]; strain 2544) [µg/mL] | BMD (MIC) (Streptococcus Pneumoniae [6]; strain ATCC 49619) [µg/mL] | other results |
| --- | --- | --- | --- | --- | --- | --- | --- | --- | --- | --- | --- | --- | --- | --- | --- | --- | --- | --- | --- | --- | --- |
| CO/N=C(\C(=O)N[C@@H]1C(=O)N2C(C(=O)[O-])=C(C[N+]3(C)CCCC3)CS[C@H]12)c1csc(N)n1 [cefepime] | – | – | – | – | – | – | – | – | – | – | – | – | – | – | – | – | – | – | – | – | MIC ([1]; culture PA/2467): 16 µg/mL (≈ 33.3 µM); MIC ([2]; PA/2467, 5 h-6 h, only time frame, omitted from determination (Type II), read-out: MIC (25%)): 8 µg/mL (≈ 16.6 µM); MIC ([2]; PA/2467, 5 h-6 h, only time frame, read-out: MIC (40%)): 8 µg/mL (≈ 16.6 µM); MIC ([2]; PA/2467, 5 h-6 h, only time frame, read-out: MIC (60%)): 4 µg/mL (≈ 8.32 µM); MIC ([2]; PA/2467, 5 h-6 h, only time frame, read-out: MIC (75%)): 4 µg/mL (≈ 8.32 µM); MIC ([2]; PA/2467, FIG. 5F, overall conclusion, read-out: MIC value determined by the method): 8 µg/mL (≈ 16.6 µM) |
| CC(C)(O/N=C(\C(=O)N[C@@H]1C(=O)N2C(C(=O)[O-])=C(C[n+]3ccccc3)CS[C@H]12)c1csc(N)n1)C(=O)O [ceftazidime] | – | – | – | – | – | – | – | – | – | – | – | – | – | – | – | – | – | – | – | – | MIC ([1]; culture PA/2472): 32 µg/mL (≈ 58.5 µM); heteroresistance determined by the method ([2]; PA/2472, FIG. 5E, overall conclusion): not heteroresistant; HR? at MIC (40%) ([2]; PA/2472, ratio MIC T2/T1): no (If the ratio of the MIC value in the second time frame over the MIC value in the first time frame is lower than or equal to 4 then the ratio is labelled not to be heteroresistant); HR? at MIC (60%) ([2]; PA/2472, ratio MIC T2/T1): no (If the ratio of the MIC value in the second time frame over the MIC value in the first time frame is lower than or equal to 4 then the ratio is labelled not to be heteroresistant); HR? at MIC (75%) ([2]; PA/2472, ratio MIC T2/T1): no (If the ratio of the MIC value in the second time frame over the MIC value in the first time frame is lower than or equal to 4 then the ratio is labelled not to be heteroresistant); HR? at MIC (25%) ([2]; PA/2472, ratio MIC T2/T1, omitted (Type II)): no (If the ratio of the MIC value in the second time frame over the MIC value in the first time frame is lower than or equal to 4 then the ratio is labelled not to be heteroresistant); MIC ([2]; PA/2472, 3 h-4 h, omitted from determination (Type II), read-out: MIC (25%) T1): 64 µg/mL (≈ 117 µM); MIC ([2]; PA/2472, 3 h-4 h, read-out: MIC (40%) T1): 32 µg/mL (≈ 58.5 µM); MIC ([2]; PA/2472, 3 h-4 h, read-out: MIC (60%) T1): 32 µg/mL (≈ 58.5 µM); MIC ([2]; PA/2472, 3 h-4 h, read-out: MIC (75%) T1): 32 µg/mL (≈ 58.5 µM); MIC ([2]; PA/2472, 5 h-6 h, omitted from determination (Type II), read-out: MIC (25%) T2): 64 µg/mL (≈ 117 µM); MIC ([2]; PA/2472, 5 h-6 h, read-out: MIC (40%) T2): 32 µg/mL (≈ 58.5 µM); MIC ([2]; PA/2472, 5 h-6 h, read-out: MIC (60%) T2): 32 µg/mL (≈ 58.5 µM); MIC ([2]; PA/2472, 5 h-6 h, read-out: MIC (75%) T2): 32 µg/mL (≈ 58.5 µM); MIC ([2]; PA/2472, FIG. 5E, overall conclusion, read-out: MIC value determined by the method): 32 µg/mL (≈ 58.5 µM); MIC ([3]; Pseudomonas aeruginosa): 32 µg/mL (≈ 58.5 µM); HR? (E-test) [3]: no |
| CO/N=C(\C(=O)N[C@@H]1C(=O)N2C(C(=O)O)=C(CSc3nc(=O)c(=O)[nH]n3C)CS[C@H]12)c1csc(N)n1 [Ceftriaxone] | no | 0.125 | no | 0.024 | no | 0.047 | no | 0.016 | 0.016 | 0.256 | 0.256 | 0.064 | 0.064 | 0.032 | no (If the ratio of the MIC value in the second time frame over the MIC value in the first time frame is lower than or equal to 4 then the ratio is labelled not to be heteroresistant) | > 16 | 0.008 | 0.256 | 0.064 | 0.064 | E-test (MIC) (Streptococcus Pneumoniae [4]; strain 2532): ≤ 0.16 µg/mL |
| CC1(C)S[C@@H]2[C@H](NC(=O)Cc3ccccc3)C(=O)N2[C@H]1C(=O)O [Benzyl-penicilline] | no | 1.5 | no | 0.1 | no | 0.25 | no | 0.016 | 0.016 | 1 | 1 | 0.256 | 0.256 | 0.256 | no (If the ratio of the MIC value in the second time frame over the MIC value in the first time frame is lower than or equal to 4 then the ratio is labelled not to be heteroresistant) | 0.256 | 0.016 | 2 | 0.256 | 0.256 | HR MICSTRIP (Streptococcus Pneumoniae [5]; strain 2543, 635 nm): no (If the ratio of the MIC value in the second time frame over the MIC value in the first time frame is lower than or equal to 4 then the ratio is labelled not to be heteroresistant); HR MICSTRIP (Streptococcus Pneumoniae [5]; strain 2543, 650 nm): no (If the ratio of the MIC value in the second time frame over the MIC value in the first time frame is lower than or equal to 4 then the ratio is labelled not to be heteroresistant); HR MICSTRIP (Streptococcus Pneumoniae [5]; strain ATCC 49619, 635 nm): no (If the ratio of the MIC value in the second time frame over the MIC value in the first time frame is lower than or equal to 4 then the ratio is labelled not to be heteroresistant) |
